Organism: Rattus norvegicus
Assay: Open TG-GATES - Regimen: Single
Assay type: toxicity, organism-based, Sprague-Dawley
Design: regimen Single, gender Male, age 6 weeks
Conditions: in vivo, po, 100 mg/kg, route gavage, dose level Low; for APTT / Bas / Eos / Fbg / Hb / Ht / Lym / MCH / MCHC / MCV / Mono / Neu / PT / Plat / RBC / Ret / WBC: tissue Blood; for KIDNEY_L / KIDNEY_R / KIDNEY_TOTAL: tissue Kidney; for LIVER: tissue Liver; for A/G / ALP / ALT / AST / BUN / CRE / Ca / Cl / DBIL / GLC / IP / K / LDH / Na / PL / RALB / TBIL / TC / TG / TP / gamma-GTP: tissue Plasma

CCC1(c2ccccc2)C(=O)NC(=O)NC1=O [PHENOBARBITAL]
TERMINAL_BW (3 h): 225.5 g
APTT (3 h): 20.6 s
Bas (3 h): 0%
Eos (3 h): 1%
Fbg (3 h): 220.6 mg/dL
Hb (3 h): 13.7 g/dL
Ht (3 h): 37.8%
Lym (3 h): 76.6%
MCH (3 h): 22.2 pg
MCHC (3 h): 36.1%
MCV (3 h): 61.3 fL
Mono (3 h): 3.4%
Neu (3 h): 18.2%
PT (3 h): 12 s
Plat (3 h): 126.2 x10_4/uL
RBC (3 h): 616.6 x10_4/ul
Ret (3 h): 7.8%
WBC (3 h): 85.2 x10_2/uL
KIDNEY_L (3 h): 1 g
KIDNEY_R (3 h): 1 g
KIDNEY_TOTAL (3 h): 2.1 g
LIVER (3 h): 10.1 g
A/G (3 h): 1.6
ALP (3 h): 991 IU/L
ALT (3 h): 33.4 IU/L
AST (3 h): 67.4 IU/L
BUN (3 h): 8.4 mg/dL
CRE (3 h): 0.3 mg/dL
Ca (3 h): 10.7 mg/dL
Cl (3 h): 101.4 meq/L
DBIL (3 h): 0.064 mg/dL
GLC (3 h): 179.4 mg/dL
IP (3 h): 9.7 mg/dL
K (3 h): 4.4 meq/L
LDH (3 h): 168.4 IU/L
Na (3 h): 139.8 meq/L
PL (3 h): 156.6 mg/dL
RALB (3 h): 3.3 g/dL
TBIL (3 h): 0.1 mg/dL
TC (3 h): 83.4 mg/dL
TG (3 h): 83.8 mg/dL
TP (3 h): 5.3 g/dL
gamma-GTP (3 h): 1 IU/L
TERMINAL_BW (6 h): 222.4 g
APTT (6 h): 18 s
Bas (6 h): 0.2%
Eos (6 h): 0.8%
Fbg (6 h): 237.8 mg/dL
Hb (6 h): 13.7 g/dL
Ht (6 h): 37.9%
Lym (6 h): 79.8%
MCH (6 h): 21.4 pg
MCHC (6 h): 36.2%
MCV (6 h): 59 fL
Mono (6 h): 3.4%
Neu (6 h): 15%
PT (6 h): 11.8 s
Plat (6 h): 124.2 x10_4/uL
RBC (6 h): 643 x10_4/ul
Ret (6 h): 8.1%
WBC (6 h): 90.7 x10_2/uL
KIDNEY_L (6 h): 1 g
KIDNEY_R (6 h): 0.9 g
KIDNEY_TOTAL (6 h): 1.9 g
LIVER (6 h): 9.4 g
A/G (6 h): 1.6
ALP (6 h): 1012 IU/L
ALT (6 h): 31.8 IU/L
AST (6 h): 64.8 IU/L
BUN (6 h): 7.6 mg/dL
CRE (6 h): 0.4 mg/dL
Ca (6 h): 10.7 mg/dL
Cl (6 h): 100.4 meq/L
DBIL (6 h): 0.074 mg/dL
GLC (6 h): 191.8 mg/dL
IP (6 h): 10.1 mg/dL
K (6 h): 3.9 meq/L
LDH (6 h): 173.2 IU/L
Na (6 h): 139.6 meq/L
PL (6 h): 138.8 mg/dL
RALB (6 h): 3.3 g/dL
TBIL (6 h): 0.1 mg/dL
TC (6 h): 71 mg/dL
TG (6 h): 68.8 mg/dL
TP (6 h): 5.5 g/dL
gamma-GTP (6 h): 0.8 IU/L
TERMINAL_BW (9 h): 220.3 g
APTT (9 h): 19.6 s
Bas (9 h): 0.4%
Eos (9 h): 0.8%
Fbg (9 h): 215.6 mg/dL
Hb (9 h): 13.8 g/dL
Ht (9 h): 38.2%
Lym (9 h): 74.6%
MCH (9 h): 21.6 pg
MCHC (9 h): 36.2%
MCV (9 h): 59.6 fL
Mono (9 h): 2.6%
Neu (9 h): 20.6%
PT (9 h): 12.4 s
Plat (9 h): 124.9 x10_4/uL
RBC (9 h): 640.6 x10_4/ul
Ret (9 h): 7.4%
WBC (9 h): 90 x10_2/uL
KIDNEY_L (9 h): 1 g
KIDNEY_R (9 h): 1 g
KIDNEY_TOTAL (9 h): 1.9 g
LIVER (9 h): 9.2 g
A/G (9 h): 1.6
ALP (9 h): 848.2 IU/L
ALT (9 h): 25.2 IU/L
AST (9 h): 60.4 IU/L
BUN (9 h): 10.4 mg/dL
CRE (9 h): 0.3 mg/dL
Ca (9 h): 10.4 mg/dL
Cl (9 h): 101 meq/L
DBIL (9 h): 0.064 mg/dL
GLC (9 h): 196.4 mg/dL
IP (9 h): 8.7 mg/dL
K (9 h): 3.9 meq/L
LDH (9 h): 154.4 IU/L
Na (9 h): 140.4 meq/L
PL (9 h): 129.8 mg/dL
RALB (9 h): 3.4 g/dL
TBIL (9 h): 0.1 mg/dL
TC (9 h): 64.4 mg/dL
TG (9 h): 55.6 mg/dL
TP (9 h): 5.5 g/dL
gamma-GTP (9 h): 0.6 IU/L
TERMINAL_BW (24 h): 234.5 g
APTT (24 h): 21 s
Bas (24 h): 0.8%
Eos (24 h): 1%
Fbg (24 h): 217.8 mg/dL
Hb (24 h): 13.5 g/dL
Ht (24 h): 37.2%
Lym (24 h): 77.8%
MCH (24 h): 22.2 pg
MCHC (24 h): 36.2%
MCV (24 h): 61.3 fL
Mono (24 h): 2.6%
Neu (24 h): 17.8%
PT (24 h): 11.8 s
Plat (24 h): 122.9 x10_4/uL
RBC (24 h): 607.6 x10_4/ul
Ret (24 h): 6.6%
WBC (24 h): 114.9 x10_2/uL
KIDNEY_L (24 h): 1.1 g
KIDNEY_R (24 h): 1.1 g
KIDNEY_TOTAL (24 h): 2.3 g
LIVER (24 h): 12 g
A/G (24 h): 1.6
ALP (24 h): 1006.8 IU/L
ALT (24 h): 39 IU/L
AST (24 h): 70.6 IU/L
BUN (24 h): 14.4 mg/dL
CRE (24 h): 0.4 mg/dL
Ca (24 h): 10.8 mg/dL
Cl (24 h): 102.4 meq/L
DBIL (24 h): 0.062 mg/dL
GLC (24 h): 183.4 mg/dL
IP (24 h): 7.3 mg/dL
K (24 h): 3.8 meq/L
LDH (24 h): 181.4 IU/L
Na (24 h): 142 meq/L
PL (24 h): 132.6 mg/dL
RALB (24 h): 3.4 g/dL
TBIL (24 h): 0.1 mg/dL
TC (24 h): 64 mg/dL
TG (24 h): 105.4 mg/dL
TP (24 h): 5.6 g/dL
gamma-GTP (24 h): 0.8 IU/L

Source: ChEMBL document CHEMBL3885861, “Open TG-GATES”
